Results taken from patent publication US11306102B2, “1,3-di-substituted ketene compound and application thereof” (BEBETTER MED INC., priority 2017, dated 2022).

Target: T1, PPARγ (Homo sapiens, UniProt P37231)
T1 construct: expressed in transfected cells; host or cells: Hela cells
T1 sequence (P37231 1-505): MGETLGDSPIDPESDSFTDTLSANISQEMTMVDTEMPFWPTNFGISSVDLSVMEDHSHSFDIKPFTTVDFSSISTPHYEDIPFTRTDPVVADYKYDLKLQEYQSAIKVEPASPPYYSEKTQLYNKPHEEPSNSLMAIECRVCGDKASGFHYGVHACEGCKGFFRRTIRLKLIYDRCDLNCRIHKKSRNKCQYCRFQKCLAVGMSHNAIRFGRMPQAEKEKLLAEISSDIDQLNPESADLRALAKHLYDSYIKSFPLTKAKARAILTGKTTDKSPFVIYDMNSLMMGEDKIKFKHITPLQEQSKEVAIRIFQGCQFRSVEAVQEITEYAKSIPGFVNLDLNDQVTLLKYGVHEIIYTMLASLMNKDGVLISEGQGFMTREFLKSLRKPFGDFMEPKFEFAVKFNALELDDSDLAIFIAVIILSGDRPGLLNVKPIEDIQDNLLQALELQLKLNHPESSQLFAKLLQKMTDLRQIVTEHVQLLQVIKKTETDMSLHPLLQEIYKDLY
Test: Hela cell/luciferase reporter gene method, PPARγ agonist activity
Format: cell-based
Details: for EC50: Hela cells, pPPRE3-TK-Luciferase reporter, 24 hrs incubation, read-out: agonistic activity on PPARγ (EC50)
Protocol: This example measures the biological activity of a PPAR agonist using the Hela cell/luciferase reporter gene method.
The target plasmids PCMV PPARα (Ampicillin+), PCMV PPARγ (Ampicillin+), PCMV PPARδ (Ampicillin+), and pPPRE3-TK-Luciferase (Ampicillin+) were introduced into DH5a competent cells by heat shock treatment, respectively. After being incubated for 1 hour at 37° C. with shaking (180 rpm), the cells were inoculated on LB agar solid medium containing antibiotic Ampicillin, and invertedly cultured at 37° C. for 12-16 hours. Then the monoclonal colony cultured on the medium was taken and inoculated into LB liquid medium for expanded culture. The desired plasmid was extracted from the resulting bacterial solution with a Plasmid Midi Kit (Qiagen; #12143). The plasmid obtained by centrifugation was suspended in TE buffer, and the plasmid concentration was measured and the mixture was stored at −20° C. Hela cells in the exponential phase were seeded in 6-well plates (8-10^5 cells/well), and after 6-8 hours of culture, the cells were transfected using Lipofectamine® 3000 Transfection Reagent (Invitrogen; #L3000015). A plasmid containing a PPAR binding site (peroxisome proliferator response element, PPRE) and a firefly luciferase gene (pPPRE3-TK-Luciferase) and PPAR expression vector were co-transfected into a Hela cell with a total amount of plasmid DNA of 2.5 ug (the mass ratio of each PPAR expression vector is pPPRE:PPARα=6:1, pPPRE:PPARδ=8:1, and pPPRE:PPARγ=2:1) to construct a drug screening cell model for PPAR agonists. PPAR was binded to the ligand and then binded to the peroxisome proliferator response element (PPRE), thereby initiating downstream firefly luciferase expression and its expression intensity was directly proportional to the degree of PPAR activation. The cells after 24 hours transfection were prepared into a cell suspension with a cell concentration of […] by a complete culture solution, and seeded into a 96-well plate with 100 ul per well. After overnight culture, the medium was changed to a medium containing 1% FBS. 10 mM candidate compound stock (1000×) were 4-fold diluted in DMSO for 8 points, then supplemented with medium containing 1% FBS to a final concentration of 50 uM (5×) by addition of 25 μl of 5× compound diluent to each well in different concentration gradients and incubated under 37° C., 5% CO2 incubator for 24 hrs. The 96-well plate was taken out and 30 μl of Bright-Glo™ Luciferase Assay System (Promega #E2620) was added to each well. The Luciferase luminescence intensity was measured by a SynergyH1 full-function microplate detector. The obtained data was used to calculate EC50 using GraphPad Prism 5.0 software to determine the biological activity of the compound.
The agonistic activity of the compounds synthesized in Examples 1-41 on PPAR is represented by EC50 (see Table 1). EC50 refers to the drug concentration at which the compound has a 50% increase in the agonistic activity of the measured PPAR. The compound numbers in Table 1 correspond to the compound numbers in Examples 1-41.

Row | SMILES | EC50 [µM] | activation of PPARγ compared with Elafibranor (in words)
1 | CCSc1ccc2c(C)c(C(=O)/C=C/c3cc(C)c(OC(C)(C)C(=O)O)c(C)c3)oc2c1 [Compound 74, (E)-2-(4-(3-(6-(ethylthio)-3-methylbenzofuran-2-yl)-3-oxoprop-1-en-1-yl)-2,6-dimethylphenoxy)-2-methylpropanoic acid] | 0.0293 | 
2 | CSc1ccc2cc(C(=O)/C=C/c3cc(Cl)c(OC(C)(C)C(=O)O)c(Cl)c3)oc2c1 [Compound 100, (E)-2-(2,6-dichloro-4-(3-(6-(methylthio)benzofuran-2-yl)-3-oxoprop-1-en-1-yl)phenoxy)-2-methylpropanoic acid] | 0.475 | significantly reduced
3 | Cc1cc(/C=C/C(=O)c2ccc3c(c2)CCS3)cc(C)c1OC(C)(C)C(=O)O [Compound 36, (E)-2-(4-(3-(2,3-dihydrobenzo[b]thiophen-5-yl)-3-oxoprop-1-en-1-yl)-2,6-dimethylphenoxy)-2-methylpropanoic acid] | 0.0316 | 
4 | CSc1ccc2c(C)c(C(=O)/C=C/c3cc(Cl)c(OC(C)(C)C(=O)O)c(Cl)c3)oc2c1 [Compound 103, (E)-2-(2,6-dichloro-4-(3-(3-methyl-6-(methylthio)benzofuran-2-yl)-3-oxoprop-1-en-1-yl)phenoxy)-2-methylpropanoic acid] | 0.788 | significantly reduced
5 | CSc1ccc(C(=O)/C=C/c2cc(C)c(OC(C)(C)C(=O)O)c(C)c2)c2occc12 [Compound 5, (E)-2-(2,6-dimethyl-4-(3-(4-(methylthio)benzofuran-7-yl)-3-oxoprop-1-en-1-yl)phenoxy)-2-methylpropanoic acid] | 0.0262 | 
6 | COc1ccc2cc(C(=O)/C=C/c3cc(C)c(OC(C)(C)C(=O)O)c(C)c3)oc2c1 [Compound 43, (E)-2-(4-(3-(6-methoxybenzofuran-2-yl)-3-oxoprop-1-en-1-yl)-2,6-dimethylphenoxy)-2-methylpropanoic acid] | 0.116 | 
7 | CSc1ccc(C(=O)/C=C/c2cc(C)c(OC(C)(C)C(=O)O)c(C)c2)c2ccoc12 [Compound 27, (E)-2-(2,6-dimethyl-4-(3-(7-(methylthio)benzofuran-4-yl)-3-oxoprop-1-en-1-yl)phenoxy)-2-methylpropanoic acid] | 0.124 | 
8 | CCSc1ccc(C(=O)/C=C/c2cc(C)c(OC(C)(C)C(=O)O)c(C)c2)c2occc12 [Compound 6, (E)-2-(4-(3-(4-(ethylthio)benzofuran-7-yl)-3-oxoprop-1-en-1-yl)-2,6-dimethylphenoxy)-2-methylpropanoic acid] | 0.0626 | 

Next, values leading:

Row | EC50 [µM] | activation of PPARγ compared with Elafibranor (in words) | SMILES
9 | 0.0941 |  | CSc1ccc2cc(C(=O)/C=C/c3cc(C)c(OC(C)(C)C(=O)O)c(C)c3)sc2c1 [Compound 81, (E)-2-(2,6-dimethyl-4-(3-(6-(methylthio)benzo[b]thiophen-2-yl)-3-oxoprop-1-en-1-yl)phenoxy)-2-methylpropanoic acid]
10 | 0.0955 |  | CCc1c(C(=O)/C=C/c2cc(C)c(OC(C)(C)C(=O)O)c(C)c2)oc2cc(SC)ccc12 [Compound 63, (E)-2-(4-(3-(3-ethyl-6-(methylthio)benzofuran-2-yl)-3-oxoprop-1-en-1-yl)-2,6-dimethylphenoxy)-2-methylpropanoic acid]
11 | 0.0353 | little effect | CSc1ccc2cc(C(=O)/C=C/c3cc(C)c(OC(C)(C)C(=O)O)c(C)c3)oc2c1 [Compound 51, (E)-2-(2,6-dimethyl-4-(3-(6-(methylthio)benzofuran-2-yl)-3-oxoprop-1-en-1-yl)phenoxy)-2-methylpropanoic acid]
12 | 0.132 | weak activation | CSc1ccc2c(C)c(C(=O)/C=C/c3cc(C)c(OC(C)(C)C(=O)O)c(C)c3)oc2c1 [Compound 62, (E)-2-(2,6-dimethyl-4-(3-(3-methyl-6-(methylthio)benzofuran-2-yl)-3-oxoprop-1-en-1-yl)phenoxy)-2-methylpropanoic acid]
13 | 0.0923 |  | CSc1cccc2oc(C(=O)/C=C/c3cc(C)c(OC(C)(C)C(=O)O)c(C)c3)cc12 [Compound 60, (E)-2-(2,6-dimethyl-4-(3-(4-(methylthio)benzofuran-2-yl)-3-oxoprop-1-en-1-yl)phenoxy)-2-methylpropanoic acid]
